# Assay results published in ChEMBL document CHEMBL6177942, “Recent advances of selenized tubulin inhibitors in cancer therapy” (Bioorg Med Chem Lett, 2025).
# What was measured:
# RKO [1] = test: Antiproliferative activity against human RKO cells assessed as reduction in cell growth measured for 48 hrs by MTT assay; type: functional, cell-based; conditions: pooled result: one value given for 6 cell lines, strains, targets or settings
# RKO [2] = test: Antiproliferative activity against human RKO cells assessed as reduction in cell viability incubated for 48 hrs by MTT assay; type: functional, cell-based
# HepG2 = test: Antiproliferative activity against human HepG2 cells assessed as reduction in cell viability incubated for 48 hrs by MTT assay; type: functional, cell-based; conditions: HepG2, 48 h
# MDA-MB-231 [3] = test: Antiproliferative activity against human MDA-MB-231 cells assessed as reduction in cell viability incubated for 48 hrs by MTT assay; type: functional, cell-based; conditions: MDA-MB-231, 48 h
# HeLa = test: Antiproliferative activity against human HeLa cells assessed as reduction in cell viability incubated for 48 hrs by MTT assay; type: functional, cell-based
# HCT-116 = test: Antiproliferative activity against human HCT-116 cells assessed as reduction in cell viability incubated for 48 hrs by MTT assay; type: functional, cell-based; conditions: HCT-116, 48 h
# A549 = test: Antiproliferative activity against human A549 cells assessed as reduction in cell viability incubated for 48 hrs by MTT assay; type: functional, cell-based; conditions: A549, 48 h
# HT-1080 = test: Antiproliferative activity against human HT-1080 cells assessed as reduction in cell viability by MTT assay; type: functional, cell-based
# KB = test: Antiproliferative activity against human KB cells assessed as reduction in cell viability by MTT assay; type: functional, cell-based
# SGC-7901 = test: Antiproliferative activity against human SGC-7901 cells assessed as reduction in cell viability by MTT assay; type: functional, cell-based
# MCF7 = test: Antiproliferative activity against human MCF7 cells assessed as reduction in cell viability incubated for 72 hrs by MTT assay; type: functional, cell-based; conditions: MCF7, 72 h
# MDA-MB-231 [4] = test: Antiproliferative activity against human MDA-MB-231 cells assessed as reduction in cell viability incubated for 72 hrs by MTT assay; type: functional, cell-based; conditions: MDA-MB-231, 72 h
# [5] = Antiproliferative activity against human MCF-10A cells assessed as reduction in cell viability incubated for 72 hrs by MTT assay; type: toxicity, cell-based
# NCI/ADR-RES = test: Antiproliferative activity against human MCF7ADR cells assessed as reduction in cell viability incubated for 72 hrs by MTT assay; type: functional, cell-based
structure (smiles),measurement,setting,value
C[Se]c1ccc(N(C)c2nc(Cl)nc3ccccc23)cc1,IC50,RKO [1],2.77 nM
C[Se]c1ccc(N(C)c2nc(=O)[nH]c3ccccc23)cc1,IC50,RKO [1],17.4 nM
Cc1cc(N(C)c2nc(Cl)nc3ccccc23)ccc1[Se]C#N,IC50,RKO [1],6.01 nM
COc1nc(N(C)c2ccc([Se]C)cc2)c2ccccc2n1,IC50,RKO [1],4.78 nM
COc1cc(C(=O)/C=C/c2c[nH]c3ccccc23)cc([Se]C)c1OC,IC50,RKO [2],29 nM
same,IC50,HepG2,29 nM
same,IC50,MDA-MB-231 [3],29 nM
same,IC50,HeLa,29 nM
same,IC50,HCT-116,29 nM
same,IC50,A549,29 nM
CN(c1ccc([Se]C#N)cc1)c1nc(Cl)nc2ccccc12,IC50,RKO [1],3.39 nM
COc1ccc([Se]c2c(C)[nH]c3c(OC)c(OC)c(OC)cc23)cc1O,IC50,HT-1080,14 nM
same,IC50,KB,25 nM
same,IC50,SGC-7901,54 nM
Cc1cc([Se]C#N)ccc1N(C)c1nc(Cl)nc2ccccc12,IC50,RKO [1],37.9 nM
COc1ccc([Se]c2c[nH]c3c(OC)c(OC)c(OC)cc23)cc1O,IC50,HT-1080,1000 nM
same,IC50,KB,640 nM
same,IC50,SGC-7901,220 nM
COc1ccc([Se](=O)c2cc(OC)c(OC)c(OC)c2)cc1O (stereo not given),IC50,MCF7,25 nM
same,IC50,MDA-MB-231 [4],6.3 nM
same,IC50 at 72 h,[5],131 nM
same,IC50,NCI/ADR-RES,26.3 nM
COc1ccc(/C=C\c2cc(OC)c(OC)c(OC)c2)cc1O [COMBRETASTATIN A4],IC50,HT-1080,11 nM
same,IC50,KB,4 nM
same,IC50,SGC-7901,11 nM
